Values joined by “and” are separate entries in the source; they are usually repeats but may differ in a detail not shown here. Equal entries are not always repeated. Toxic doses and inconclusive results are not listed. Cut-off read from the data, not from the text of the source: active = T/C of 150% or more; inactive = T/C below 125%.
Test system: L1210 leukemia ip in BDF1 mice, survival T/C
Assay: NCI In Vivo Anticancer Drug Screen. Data for tumor model L1210 Leukemia (intraperitoneal) in B6D2F1 (BDF1) mice
Settings: endpoint: mean survival time, higher = longer survival
Outline: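 Transplanted-tumor mice were given test agent; controls received vehicle only. Survival readings from the two groups were divided (treated over control).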

[1] = dose: 100.0 mg/kg/injection, schedule: Q01DX001 (ip), vehicle: Klucel (hydroxypropylcellulose) (HPC)
[2] = dose: 200.0 mg/kg/injection, schedule: Q01DX001 (ip), vehicle: Klucel (hydroxypropylcellulose) (HPC)
[3] = dose: 400.0 mg/kg/injection, schedule: Q01DX001 (ip), vehicle: Klucel (hydroxypropylcellulose) (HPC)
[4] = dose: 100.0 mg/kg/injection, schedule: Q01DX001 (ip), vehicle: saline
[5] = dose: 200.0 mg/kg/injection, schedule: Q01DX001 (ip), vehicle: saline
[6] = dose: 400.0 mg/kg/injection, schedule: Q01DX001 (ip), vehicle: saline
[7] = dose: 50.0 mg/kg/injection, schedule: Q01DX001 (ip), vehicle: carboxymethylcellulose (CMC)
[8] = dose: 100.0 mg/kg/injection, schedule: Q01DX001 (ip), vehicle: carboxymethylcellulose (CMC)
[9] = dose: 200.0 mg/kg/injection, schedule: Q01DX001 (ip), vehicle: carboxymethylcellulose (CMC)
[10] = dose: 400.0 mg/kg/injection, schedule: Q01DX001 (ip), vehicle: carboxymethylcellulose (CMC)
[11] = dose: 100.0 mg/kg/injection, schedule: Q01DX009 (ip), vehicle: Klucel (hydroxypropylcellulose) (HPC)
[12] = dose: 50.0 mg/kg/injection, schedule: Q01DX009 (ip), vehicle: saline with Tween-80
[13] = dose: 100.0 mg/kg/injection, schedule: Q01DX009 (ip), vehicle: saline with Tween-80
[14] = dose: 200.0 mg/kg/injection, schedule: Q01DX009 (ip), vehicle: saline with Tween-80
[15] = dose: 100.0 mg/kg/injection, schedule: Q04DX003 (ip), vehicle: saline with Tween-80
[16] = dose: 200.0 mg/kg/injection, schedule: Q04DX003 (ip), vehicle: saline with Tween-80
[17] = dose: 400.0 mg/kg/injection, schedule: Q01DX009 (ip), vehicle: saline with Tween-80
[18] = dose: 400.0 mg/kg/injection, schedule: Q04DX003 (ip), vehicle: saline with Tween-80
[19] = dose: 100.0 mg/kg/injection, schedule: Q04DX002 (ip), vehicle: Klucel (hydroxypropylcellulose) (HPC)
[20] = dose: 100.0 mg/kg/injection, schedule: Q04DX003 (ip), vehicle: Klucel (hydroxypropylcellulose) (HPC)
[21] = dose: 200.0 mg/kg/injection, schedule: Q01DX009 (ip), vehicle: Klucel (hydroxypropylcellulose) (HPC)
[22] = dose: 200.0 mg/kg/injection, schedule: Q04DX003 (ip), vehicle: Klucel (hydroxypropylcellulose) (HPC)
[23] = dose: 400.0 mg/kg/injection, schedule: Q01DX009 (ip), vehicle: Klucel (hydroxypropylcellulose) (HPC)
[24] = dose: 400.0 mg/kg/injection, schedule: Q04DX003 (ip), vehicle: Klucel (hydroxypropylcellulose) (HPC)
[25] = dose: 12.5 mg/kg/injection, schedule: Q01DX009 (ip), vehicle: saline
[26] = dose: 12.5 mg/kg/injection, schedule: Q04DX003 (ip), vehicle: saline with Tween-80
[27] = dose: 25.0 mg/kg/injection, schedule: Q04DX003 (ip), vehicle: saline with Tween-80

Measured: T/C

Nc1ncnc(N)c1NC(=O)c1ccc(CCc2ccccc2)c(Cl)c1
inactive: [1] 102 % of control | [2] 90 % of control | [3] 86 % of control

O=C1C(c2c[nH]c3ccc(Br)cc23)=Nc2ccc(Br)cc21
inactive: [4] 102 % of control | [5] 100 % of control | [6] 105 % of control

CN(C)c1ccc(N=C2C(c3ccccc3)=CC(c3ccccc3)=C2c2ccccc2)cc1
inactive: [7] 89 % of control | [8] 91 % of control | [9] 94 % of control | [10] 97 % of control

O=c1nccc(Nc2ccccc2)[nH]1
inactive: dose: 25.0 mg/kg/injection, schedule: Q01DX009 (ip), vehicle: Klucel (hydroxypropylcellulose) (HPC) 98 % of control | dose: 50.0 mg/kg/injection, schedule: Q01DX009 (ip), vehicle: Klucel (hydroxypropylcellulose) (HPC) 93 % of control | [11] 98 % of control

COc1cccc(C(C)(C)CO)c1
inactive: [12] 93 % of control | [13] 89 % of control | [14] 89 % of control

O=C(NCCCOc1ccccc1)NCCc1ccc(Cl)c(Cl)c1
inactive: dose: 100.0 mg/kg/injection, schedule: Q01DX001 (ip), vehicle: gum acacia 99 % of control | dose: 200.0 mg/kg/injection, schedule: Q01DX001 (ip), vehicle: gum acacia 94 % of control | dose: 400.0 mg/kg/injection, schedule: Q01DX001 (ip), vehicle: gum acacia 91 % of control

Oc1ccccc1-c1nnco1
inactive: [7] 94 % of control | [8] 92 % of control | [9] 94 % of control | [10] 94 % of control

C(=C(c1ccccc1)c1ccccc1)c1ccccn1
inactive: [13] 97 % of control | [15] 98 % of control | [14] 100 % of control | [16] 93 % of control | [17] 97 % of control

COC1OC(COS(=O)(=O)c2ccc(C)cc2)C(OS(=O)(=O)c2ccc(C)cc2)C(OS(=O)(=O)c2ccc(C)cc2)C1OS(=O)(=O)c1ccc(C)cc1 (stereo not given)
inactive: [15] 91 % of control | [16] 91 % of control | [18] 90 % of control

O=C(O)c1ccccc1CBr
inactive: dose: 100.0 mg/kg/injection, schedule: Q01DX005 (ip), vehicle: Klucel (hydroxypropylcellulose) (HPC) 97 % of control | [11] 97 % of control | [19] 96 % of control | [20] 93 % of control | dose: 200.0 mg/kg/injection, schedule: Q01DX005 (ip), vehicle: Klucel (hydroxypropylcellulose) (HPC) 105 % of control | [21] 97 % of control | dose: 200.0 mg/kg/injection, schedule: Q04DX002 (ip), vehicle: Klucel (hydroxypropylcellulose) (HPC) 100 % of control | [22] 93 % of control | dose: 400.0 mg/kg/injection, schedule: Q01DX005 (ip), vehicle: Klucel (hydroxypropylcellulose) (HPC) 101 % of control | [23] 97 % of control | dose: 400.0 mg/kg/injection, schedule: Q04DX002 (ip), vehicle: Klucel (hydroxypropylcellulose) (HPC) 93 % of control | [24] 105 % of control

Cc1cccc(NC(=O)C2CCC(C)(C(=O)O)C2(C)C)c1 (stereo not given)
inactive: [12] 101 % of control | [13] 101 % of control | [14] 96 % of control

O=C(Nc1ccc(Br)cc1)c1ccc(C(=O)Nc2ccc(Br)cc2)cc1
inactive: [4] 94 % of control | [5] 100 % of control | [6] 94 % of control

CC(C)(C)CNC(C)(C)C
inactive: dose: 5.0 mg/kg/injection, schedule: Q01DX001 (ip), vehicle: saline 109 % of control | dose: 10.0 mg/kg/injection, schedule: Q01DX001 (ip), vehicle: saline 103 % of control | dose: 20.0 mg/kg/injection, schedule: Q01DX001 (ip), vehicle: saline 100 % of control | dose: 40.0 mg/kg/injection, schedule: Q01DX001 (ip), vehicle: saline 103 % of control | dose: 50.0 mg/kg/injection, schedule: Q04DX002 (ip), vehicle: saline 112 % of control | dose: 80.0 mg/kg/injection, schedule: Q01DX001 (ip), vehicle: saline 105 % of control | dose: 100.0 mg/kg/injection, schedule: Q04DX002 (ip), vehicle: saline 104 % of control | dose: 200.0 mg/kg/injection, schedule: Q04DX002 (ip), vehicle: saline 95 % of control

COc1ccc(C(=O)CCC(=O)O)cc1
inactive: [13] 102 % of control | [14] 93 % of control | [17] 91 % of control

C1CN2CN1CN1CCN(C1)C2
inactive: [25] 101 % of control | dose: 25.0 mg/kg/injection, schedule: Q01DX009 (ip), vehicle: saline 108 % of control | dose: 50.0 mg/kg/injection, schedule: Q01DX009 (ip), vehicle: saline 114 % of control

CCCCCCCCCCCCCCCCCC1=NCC[N+]1(CCO)Cc1ccccc1 (stereo not given) (tested in a mixture with another compound)
inactive: [26] 98 % of control | [27] 101 % of control

CN(C)c1ccc(/C=N\NC(=S)Nc2ccc3cn[nH]c3c2)cc1
inactive: [7] 102 % of control | [8] 102 % of control | [9] 111 % of control

Nc1nc(Cl)c(CCCCc2ccccc2)c(C(=O)O)n1
inactive: [1] 93 % of control | [2] 91 % of control | [3] 101 % of control

O=C(OCc1ccccc1CN1CCCCC1)c1ccc([N+](=O)[O-])cc1
inactive: dose: 25.0 mg/kg/injection, schedule: Q04DX002 (ip), vehicle: Klucel (hydroxypropylcellulose) (HPC) 101 % of control | dose: 50.0 mg/kg/injection, schedule: Q04DX002 (ip), vehicle: Klucel (hydroxypropylcellulose) (HPC) 94 % of control | [19] 90 % of control

CCOC(=O)c1cccc2nc3n(c12)CCC3
inactive: [12] 105 % of control | dose: 100.0 mg/kg/injection, schedule: Q01DX001 (ip), vehicle: saline with Tween-80 101 % of control | [13] 95 % of control | dose: 200.0 mg/kg/injection, schedule: Q01DX001 (ip), vehicle: saline with Tween-80 103 % of control | [14] 94 % of control

CC1(C)C(O)(C#N)C(C)(C)C1(O)C#N (stereo not given)
inactive: dose: 3.13 mg/kg/injection, schedule: Q01DX009 (ip), vehicle: saline 107 % of control | dose: 6.25 mg/kg/injection, schedule: Q01DX009 (ip), vehicle: saline 115 % of control | [25] 105 % of control

Cc1cc(C)c(C(=O)c2ccc([N+](=O)[O-])cc2)c(C)c1
inactive: [11] 98 % of control | [20] 105 % of control | [21] 86 % of control | [22] 95 % of control | [23] 86 % of control | [24] 94 % of control

FC1=C(F)C2(F)C3CCC(O3)C2(F)C(Br)=C1F (stereo not given)
inactive: [1] 99 % of control | [20] 101 % of control | [2] 91 % of control | [22] 101 % of control | [3] 100 % of control | [24] 98 % of control

CCC(C(=O)O)N1C(=O)C2C3C=CC(C3)C2C1=O (stereo not given)
inactive: [15] 94 % of control and 96 % of control | [16] 96 % of control and 105 % of control | [18] 105 % of control

C#CC(=O)OCC
inactive: [26] 103 % of control | dose: 25.0 mg/kg/injection, schedule: Q01DX001 (ip), vehicle: saline with Tween-80 105 % of control | [27] 106 % of control | dose: 50.0 mg/kg/injection, schedule: Q01DX001 (ip), vehicle: saline with Tween-80 108 % of control | dose: 50.0 mg/kg/injection, schedule: Q04DX003 (ip), vehicle: saline with Tween-80 119 % of control

Cc1ccc(C(C)C)c2cc(C=O)c(O)cc12
inactive: dose: 100.0 mg/kg/injection, schedule: Q01DX001 (sc), vehicle: olive oil, sesame oil, peanut oil 95 % of control | dose: 200.0 mg/kg/injection, schedule: Q01DX001 (sc), vehicle: olive oil, sesame oil, peanut oil 109 % of control | dose: 400.0 mg/kg/injection, schedule: Q01DX001 (sc), vehicle: olive oil, sesame oil, peanut oil 101 % of control

Source: PubChem BioAssay AID248 (DTP/NCI, 2004)
